Here are results for 12 molecules from US7538131B2, “2-{-3-′2-(phenyl)-oxazol-4-ylmethoxymethyl-cyclohexylmethoxy}-propionic acid derivatives useful as peroxisome proliferator-activated receptor (PPAR) ligands for the treatment of hyperlipidemia and diabetes” (Sanofi-Aventis Deutschland GmbH, priority 2004, dated 2009).

pEC50: −log10 of the molar value.

One experiment addresses T1, human PPARalpha (Homo sapiens, UniProt Q07869).
T1 construct: human PPARalpha receptor (amino acids S167-Y468); expressed in transfected cells; host or cells: HEK cells (stably transfected, pcDNA3, CMV promoter)
T1 sequence (Q07869 167-468): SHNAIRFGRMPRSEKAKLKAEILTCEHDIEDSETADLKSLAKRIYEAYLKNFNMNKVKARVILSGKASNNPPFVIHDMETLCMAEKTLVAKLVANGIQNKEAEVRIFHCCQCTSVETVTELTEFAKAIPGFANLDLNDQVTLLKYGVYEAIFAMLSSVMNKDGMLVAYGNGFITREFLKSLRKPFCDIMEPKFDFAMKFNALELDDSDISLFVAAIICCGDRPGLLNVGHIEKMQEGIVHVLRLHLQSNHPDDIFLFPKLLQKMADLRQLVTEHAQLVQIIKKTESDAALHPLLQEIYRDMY
Kind of experiment: Cellular PPARalpha assay (stably transfected HEK luciferase reporter cell line). The format is cell-based. The settings on record: GR-GAL4-humanPPARalpha-LBD, 24 h. The method, then:
1) Determination of EC50 Values of PPAR Agonists in the Cellular PPARalpha Assay
The activity of the novel compounds of the present invention was tested as follows The potency of substances which bind to human PPARalpha and activate it in an agonistic manner is analyzed using a stably transfected HEK cell line (HEK=human embryo kidney) which is referred to here as PPARalpha reporter cell line. It contained two genetic elements, a luciferase reporter element (pdeltaM-GAL4-Luc-Zeo) and a PPARalpha fusion protein (GR-GAL4-humanPPARalpha-LBD) which mediates expression of the luciferase reporter element depending on a PPARalpha ligand. The stably and constitutively expressed fusion protein GR-GAL4-humanPPARalpha-LBD binds in the cell nucleus of the PPARalpha reporter cell line via the GAL4 protein portion to the GAL4 DNA binding motifs 5′-upstream of the luciferase reporter element which was stably integrated in the genome of the cell line. There is only little expression of the luciferase reporter gene without addition of a PPARalpha ligand if fatty acid-depleted fetal calf serum (cs-FCS) is used in the assay. PPARalpha ligands bind and activate the PPARalpha fusion protein and thereby bring about expression of the luciferase reporter gene. The luciferase which is formed can be detected by means of chemiluminescence via an appropriate substrate.
The PPARalpha reporter cell line was prepared in two steps. Firstly, the luciferase reporter element was constructed and stably transfected into HEK cells. For this purpose, five binding sites of the yeast transcription factor GAL4 (in each case 5′-CGGAGTACTGTCCTCCGAG-3′) were cloned in 5′-upstream of a 68 bp-long minimal MMTV promoter (Genbank Accession #V01175). The minimal MMTV promoter section contains a CCAAT box and a TATA element in order to enable efficient transcription by RNA polymerase II. The cloning and sequencing of the GAL4-MMTV construct took place in analogy to the description of Sambrook J. et. al. (Molecular Cloning, Cold Spring Harbor Laboratory Press, 1989). Which is hereby incorporated by reference herein.
The complete Photinus pyralis luciferase gene (Genbank Accession #M15077) was cloned in 3′-downstream of the GAL4-MMTV element. After sequencing, the luciferase reporter element consisting of five GAL4 binding sites, MMTV promoter and luciferase gene was subcloned into a plasmid which confers zeozin resistance in order to obtain the plasmid pdeltaM-GAL4-Luc-Zeo. This vector was transfected into HEK cells in accordance with the statements in Ausubel, F.M. et al. (Current Protocols in Molecular Biology, Vol. 1-3, John Wiley & Sons, Inc., 1995).
In a second step, the PPARalpha fusion protein (GR-GAL4-humanPPARalpha-LBD) was introduced into the stable cell clone described. For this purpose, initially the cDNA coding for the N-terminal 76 amino acids of the glucocorticoid receptor (Genbank Accession # P04150) was linked to the cDNA section coding for amino acids 1-147 of the yeast transcription factor GAL4 (Genbank Accession #P04386). The cDNA of the ligand-binding domain of the human PPARalpha receptor (amino acids S167-Y468; Genbank Accession #S74349) was cloned in at the 3′ end of this GR-GAL4 construct. The fusion construct prepared in this way (GR-GAL4-humanPPARalpha-LBD) was subcloned into the plasmid pcDNA3 (from Invitrogen) in order to enable constitutive expression therein by the cytomegalovirus promoter. This plasmid was linearized with a restriction endonuclease and stably transfected into the previously described cell clone containing the luciferase reporter element. The finished PPARalpha reporter cell line which contains a luciferase reporter element and constitutively expresses the PPARalpha fusion protein (GR-GAL4-humanPPARalpha-LBD) was isolated by selection with zeozin (0.5 mg/ml) and G418 (0.5 mg/ml).
The activity of PPARalpha agonists was determined in a 3-day assay which is described below: […]

The target in another experiment is T2, human PPARgamma (Homo sapiens, UniProt P37231).
T2 construct: human PPARgamma receptor (amino acids 1152-Y475); expressed in transfected cells; host or cells: HEK cells (transiently transfected, pcDNA3-GAL4-humanPPARgammaLBD)
T2 sequence (P37231 182-477 isoform P37231-2 limits assumed): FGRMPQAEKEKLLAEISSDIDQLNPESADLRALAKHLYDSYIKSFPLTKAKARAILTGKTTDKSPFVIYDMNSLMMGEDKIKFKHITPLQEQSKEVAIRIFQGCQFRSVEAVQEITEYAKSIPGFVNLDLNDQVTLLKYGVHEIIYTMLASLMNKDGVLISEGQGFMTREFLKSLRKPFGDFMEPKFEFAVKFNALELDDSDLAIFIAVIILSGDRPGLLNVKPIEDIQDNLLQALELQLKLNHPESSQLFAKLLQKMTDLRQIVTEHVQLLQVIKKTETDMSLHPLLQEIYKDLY
The experiment is described as follows: Cellular PPARgamma assay (transiently transfected HEK cells, luciferase reporter). In kind it is cell-based. The settings on record: GAL4-humanPPARgammaLBD, firefly/Renilla luciferase ratio, 48 h. From the text: 4) Determination of EC50 Values of PPAR Agonists in the Cellular PPARgamma Assay
A transient transfection system is employed to determine the cellular PPARgamma activity of PPAR agonists. It is based on the use of a luciferase reporter plasmid (pGL3basic-5xGAL4-TK) and of a PPARgamma expression plasmid (pcDNA3-GAL4-humanPPARgammaLBD). Both plasmids are transiently transfected into human embryonic kidney cells (HEK cells). There is then expression in these cells of the fusion protein GAL4-humanPPARgammaLBD which binds to the GAL4 binding sites of the reporter plasmid. In the presence of a PPARgamma-active ligand, the activated fusion protein GAL4-humanPPARgammaLBD induces expression of the luciferase reporter gene, which can be detected in the form of a chemiluminescence signal after addition of a luciferase substrate. As a difference from the stably transfected PPARalpha reporter cell line, in the cellular PPARgamma assay the two components (luciferase reporter plasmid and PPARgamma expression plasmid) are transiently transfected into HEK cells because stable and permanent expression of the PPARgamma fusion protein is cytotoxic.
The luciferase reporter plasmid pGL3basic-5xGAL4-TK is based on the vector pGL3basic from Promega. The reporter plasmid is prepared by cloning five binding sites of the yeast transcription factor GAL4 (each binding site with the sequence 5′-CTCGGAGGACAGTACTCCG-3′), together with a 160 bp-long thymidine kinase promoter section (Genbank Accession #AF027128) 5′-upstream into pGL3basic. 3′-downstream of the thymidine kinase promoter is the complete luciferase gene from Photinus pyralis (Genbank Accession # Ml 5077), which is already a constituent of the plasmid pGL3basic used. The cloning and sequencing of the reporter plasmid pGL3basic-5xGAL4-TK took place in analogy to the description in Sambrook J. et. al. (Molecular cloning, Cold Spring Harbor Laboratory Press, 1989).
The PPARgamma expression plasmid pcDNA3-GAL4-humanPPARgammaLBD was prepared by first cloning the cDNA coding for amino acids 1-147 of the yeast transcription factor GAL4 (Genbank Accession #P04386) into the plasmid pcDNA3 (from Invitrogen) 3′-downstream of the cytomegalovirus promoter. Subsequently, the cDNA of the ligand-binding domain (LBD) of the human PPARgamma receptor (amino acids […]; Accession #g1480099) 3′-downstream of the GAL4 DNA binding domain was cloned. Cloning and sequencing of the PPARgamma expression plasmid pcDNA3-GAL4-humanPPARgammaLBD again took place in analogy to the description in Sambrook J. et. al. (Molecular cloning, Cold Spring Harbor Laboratory Press, 1989). Besides the luciferase reporter plasmid pGL3basic-5xGAL4-TK and the PPARgamma expression plasmid pcDNA3-GAL4-humanPPARgammaLBD, also used for the cellular PPARgamma assay are the reference plasmid pRL-CMV (from Promega) and the plasmid pBluescript SK(+) from Stratagene. All four plasmids were prepared using a plasmid preparation kit from Qiagen, which ensured a plasmid quality with a minimal endotoxin content, before transfection into HEK cells.
The activity of PPARgamma agonists is determined in a 4-day assay which is described below. Before the transfection, HEK cells were cultivated in DMEM medium (#41965-039, Invitrogen) which was mixed with the following additions: 10% FCS (#16000-044, Invitrogen),1% penicillin-streptomycin solution (#15140-122, Invitrogen) and 2 mM L-glutamine (#25030-024, Invitrogen).
Solution A, a transfection mixture which contains all four plasmids previously described in addition to DMEM medium, was prepared. […]

In the case of `CC(C)c1oc(-c2cccc(C(F)(F)F)c2)nc1COC[C@@H]1CCC[C@H](COC(C)(C)C(=O)O)C1` [Example 7, 2-{(1S,3R)-3-[5-Isopropyl-2-(3-trifluoromethylphenyl)oxazol-4-ylmethoxymethyl]cyclohexylmethoxyl}-2-methylpropionic acid], the pEC50 on human PPARalpha was 7.34; at human PPARgamma, 6.10.

As for “2-{(1R,3S)-3-[5-Isopropyl-2-(3-methoxyphenyl)oxazol-4-ylmethoxymethyl]cyclohexylmethoxy}-2-methylpropionic acid [Example 15]”, the pEC50 was 7.14 at human PPARalpha and 6.83 at human PPARgamma.

`CCc1oc(-c2cccc(C(F)(F)F)c2)nc1COC[C@@H]1CCC[C@H](COC(C)(C)C(=O)O)C1` [Example 2, 2-{(1S,3R)-3-[5-Ethyl-2-(3-trifluoromethylphenyl)-oxazol-4-ylmethoxymethyl]cyclohexylmethoxy}-2-methylpropionic acid]: the results for the pEC50 at human PPARalpha and at human PPARgamma were 7.49 and 6.63, respectively.

Take `CCc1oc(-c2ccccc2C(F)(F)F)nc1COC[C@@H]1CCC[C@H](COC(C)(C)C(=O)O)C1` [Example 3, 2-{(1S,3R)-3-[5-Ethyl-2-(2-trifluoromethylphenyl)-oxazol-4-ylmethoxymethyl]cyclohexylmethoxyl}-2-methylpropionic acid]: the pEC50 at human PPARalpha was 6.82; at human PPARgamma, 5.56.

Turning to `Cc1ccc(-c2nc(COC[C@H]3CCC[C@@H](COC(C)(C)C(=O)O)C3)c(C(C)C)o2)cc1C` [Example 12, 2-{(1R,3S)-3-[2-(3,4-Dimethylphenyl)-5-isopropyloxazol-4-ylmethoxymethyl]cyclohexylmethoxy}-2-methylpropionic acid], the pEC50 was 8.26 at human PPARalpha and 6.88 at human PPARgamma.

Take `CCc1oc(-c2ccc3ccccc3c2)nc1COC[C@H]1CCC[C@@H](COC(C)(C)C(=O)O)C1` [Example 19, 2-[(1R,3S)-3-(5-Ethyl-2-naphthalen-2-yl-oxazol-4-ylmethoxymethyl)cyclohexylmethoxy]-2-methylpropionic acid]: the pEC50 was 8.74 at human PPARalpha and 6.72 at human PPARgamma.

For `CCc1oc(-c2ccc(C(C)(C)C)cc2)nc1COC[C@@H]1CCC[C@H](COC(C)(C)C(=O)O)C1` [Example 5, 2-{1(1S,3R)-3-[2-(4-tert-butylphenyl)-5-ethyloxazol-4-ylmethoxymethyl]cyclohexylmethoxy}-2-methylpropionic acid], the pEC50 at human PPARalpha was 7.84; at human PPARgamma it was 6.58.

On to `Cc1oc(-c2ccccc2)nc1COCC1CCCC(COC(C)(C)C(=O)O)C1` (stereo not drawn) [*], for which the pEC50 on human PPARalpha was 7.12; at human PPARgamma it was 5.59.

`Cc1ccc(-c2nc(COC[C@@H]3CCC[C@H](COC(C)(C)C(=O)O)C3)c(C(C)C)o2)cc1C` [Example 8, 2-{(1S,3R)-3-[2-(3,4-Dimethylphenyl)-5-isopropyloxazol-4-ylmethoxymethyl]cyclohexylmethoxy}-2-methylpropionic acid]: the pEC50 at human PPARalpha is 7.43; on human PPARgamma it was 5.82.

`CCc1oc(-c2ccc(C)c(C)c2)nc1COC[C@H]1CCC[C@@H](COC(C)(C)C(=O)O)C1` [Example 21, 2-{(1R,3S)-3-[2-(3,4-Dimethylphenyl)-5-ethyloxazol-4-ylmethoxymethyl]cyclohexylmethoxyl}-2-methylpropionic acid]: the pEC50 is 8.80 on human PPARalpha and 6.73 at human PPARgamma.

As to `CC(C)c1oc(-c2ccc3ccccc3c2)nc1COC[C@@H]1CCC[C@H](COC(C)(C)C(=O)O)C1` [Example 11, 2-{(1S,3R)-3-[5-Isopropyl-2-(naphtha-2-yl)oxazol-4-ylmethoxymethyl]cyclohexylmethoxy}-2-methylpropionic acid], the results for the negative-log EC50 (pEC50) on human PPARalpha and on human PPARgamma were 7.15 and 5.75, respectively.

As for `CC(C)c1oc(-c2ccc3ccccc3c2)nc1COC[C@H]1CCC[C@@H](COC(C)(C)C(=O)O)C1` [Example 14, 2-{(1R,3S)-3-[5-Isopropyl-2-(naphth-2-yl)oxazol-4-ylmethoxymethyl]cyclohexylmethoxy}-2-methylpropionic acid], the pEC50 on human PPARalpha was 7.73; on human PPARgamma it was 6.90.
